From publication PMC7802073, “Small Molecule Inhibitors of the Bacterioferritin (BfrB)–Ferredoxin (Bfd) Complex Kill Biofilm-Embedded Pseudomonas aeruginosa Cells” (ACS Infectious Diseases, 2020)
Converted amounts (≈) assume the structure as drawn.

Key:
[1] = target: BfrB (Pseudomonas aeruginosa, UniProt Q9HY79); test: Dissociation constant (Kd) for BfrB by fluorescence polarization; assay type: binding
Protocol: Dissociation constants for the interaction between BfrB and 3-aminoisoindoline-1,3-dione derivatives (Table 1, Figure S1) were measured in vitro with a fluorescence polarization method based on the intrinsic fluorescence of the isoindoline-1,3-dione moiety, as described previously.[25]
25 (A) and KM-5-66 (B) for BfrB, evaluated by fluorescence polarization, as described previously1.
Values were obtained in 100 mM potassium phosphate buffer (pH 7.6) containing 1 mM TCEP and
0.5% DMSO. The initial concentrations of KM-5-25 and KM-5-66 were 5 µM. The Kd values are the
average and standard deviation from three independent measurements. […]

[2] = Aqueous solubility; assay type: physicochemical; details: aqueous media; read-out: soluble in aqueous media to
[3] = tested on: iron stored in BfrB in pellicle-embedded P. aeruginosa PAO1 cells; test: Iron stored in BfrB, native PAGE stained with Ferene S, densitometry; assay type: cell-based, Pseudomonas aeruginosa; details: 2-day old pellicles, 24 h, KM-5-25 40 μM or KM-5-66 20 μM
[4] = tested on: P. aeruginosa PAO1; test: Half maximal inhibitory concentration (IC50) on planktonic growth, CFU/mL enumeration; assay type: cell-based, Pseudomonas aeruginosa; details: Pseudomonas aeruginosa, PAO1, defined media, 24 h, 35 °C, 2% DMSO, this work, read-out: IC50
Protocol: Chemicals were purchased from Fisher Scientific unless otherwise stated. P. aeruginosa PAO1 was obtained from the University of Washington Genome center.[81] The PAO1 strain expressing enhanced yellow fluorescent protein (EYFP) was prepared previously.[26] Clinical isolates of P. aeruginosa were purchased from JMI Laboratories (North Liberty, IA, USA). […] Starter cultures were grown from a single colony at 37 °C and shaking at 220 rpm for 14 h in 5 mL PI media supplemented with 10 μM Fe. Pellicle biofilms were cultured for 48 h at 30 °C in PI media supplemented with 20 μM Fe. Surface-attached biofilms were cultured in AB minimal media[82] supplemented with trace metals [0.15 μM (NH4)2MoO4, 3 μM CuSO4, 2 μM Co(NO3)2, 9.4 μM Na2B4O7, and 7.6 μM ZnSO4], 3 mM glucose and 15 μM Fe. Iron supplementation was carried out by addition of a small volume of filter-sterilized 10 mM (NH4)2Fe(SO4)2 (pH ∼ 2.0) solution. […]; IC50 values (Table 1, Figure S1) were determined as reported previously[25] with small modifications. In brief: precultures of P. aeruginosa PAO1 (5 mL) were grown in LB media for 13 h at 37 °C and 220 rpm in 50 mL conical tubes (VWR International, PA). The cells were centrifuged for 5 min at 4000 rpm and 4 °C, washed two times and then diluted in buffer (100 mM KH2PO4 and 15 mM (NH4)2SO4) to an optical density at 600 nm (OD600) of 0.1. A small volume of compound stock solution (10 mM) was transferred to a microcentrifuge tube, initially diluted with DMSO to 20 μL, and then diluted to 1 mL with preculture cell suspension in defined media with OD600 = 0.0001, so the final DMSO concentration is 2%. The resultant cell suspension (200 μL) was transferred to a clear-bottom polystyrene 96-well plate (VWR) covered with a lid and incubated at 35 °C and 205 cpm for 24 h in a Synergy H1 microplate reader (Biotek Instruments Inc., Vermont). The cell cultures were serially diluted and then plated on PI Agar (PIA; BD biosciences) plates for enumeration of viable cells (CFU/mL). The % growth was calculated from the ratio CFU/mL(treated)/CFU/mL(untreated control). To calculate the IC50 values, the % growth was plotted as a function of compound concentration, expressed as log[compound] (μM), and fitted to the 4-parameter logistic model describing the sigmoid-shaped response pattern (eq 1),[84] where b is the slope factor, max is the upper asymptote (plateau), and min is the lower asymptote. Values are the average and standard deviation from three independent experiments. [drawing 1] 1

BfrB, sequence (Q9HY79 whole entry): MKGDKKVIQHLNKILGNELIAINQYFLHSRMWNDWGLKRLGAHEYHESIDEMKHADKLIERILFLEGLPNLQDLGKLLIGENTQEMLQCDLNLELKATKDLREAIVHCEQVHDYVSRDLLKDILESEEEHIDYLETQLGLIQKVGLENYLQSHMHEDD

SMILES	Kd [1] [µM]	solubility [2] [µM]	iron in BfrB relative to cells in untreated pellicles (Ferene S band peak area) [3] [fold]	IC50 [4] [µM]
O=C1NC(=O)c2c(NCc3cc(Cl)ccc3O)cccc21 [KM-5-25, 4-((5-Chloro-2-hydroxybenzyl)amino)isoindoline-1,3-dione]	4 ± 0.6	~110 (≈ 33.3 µg/mL)	~3	69 ± 7
O=C1NC(=O)c2c(NCCCc3cc(O)cc(Cl)c3)cccc21 [KM-5-66, 4-((3-(3-Chloro-5-hydroxyphenyl)propyl)amino)isoindoline-1,3-dione]	0.35 ± 0.05	~80 (≈ 26.5 µg/mL)	~3	42 ± 6
